T1: ER-LBD (residues 298–554), recombinant, N-terminal His-tag (UniProt P03372 298-554, red fluorescent dye (Protein Labeling Kit RED-NHS 2nd Generation))
T1 construct: Kept with 20 µM E2 in lysis and assay buffers; also called recombinant ER-LBD; source: E. coli (BL21-DE3) with pRARE, purified (Ni-NTA, size exclusion s75), 50 µM E2 added during expression
T1 sequence (looked up): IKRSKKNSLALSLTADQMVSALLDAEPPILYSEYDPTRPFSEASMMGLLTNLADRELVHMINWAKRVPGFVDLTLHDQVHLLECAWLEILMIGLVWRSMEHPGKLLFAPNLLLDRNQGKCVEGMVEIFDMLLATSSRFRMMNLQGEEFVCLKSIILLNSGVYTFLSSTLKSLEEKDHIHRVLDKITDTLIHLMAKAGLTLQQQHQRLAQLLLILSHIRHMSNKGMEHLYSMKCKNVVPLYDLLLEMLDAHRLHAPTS

B1: coactivator peptide PGC1α (control peptide of the MST assay) (peptide)
chain: EAEEPSLLKKLLLAPANTQ

What was measured:
[1] = system: ER transcriptional activity in T47D-KBluc cells; assay: Luciferase transcriptional assay; format: cell-based; conditions: ER transcription, luciferase reporter, 1 nM E2, 24 h treatment, ± SD of 3 biological replicates
Procedure: T47D-KBluc cells or PC3m-luc cells were starved for 72 h and then seeded into 96-well plates at 20,000 or 5,000 cells/well, respectively. […] One day post-treatment, the media was removed, and cells were lysed with 65 µl of 1x passive lysis buffer (Promega #E1910). Following two freeze-thaw cycles, 20 µl of lysate were transferred to a white, 96-well flat bottom plate (Corning Life Sciences Cat#3912). 50 µl of luciferase reagent (Promega. Luciferase Assay System E1500) was added to each well, and luminescence was measured using the TECAN M200 Pro plate reader. E2 (1 nM), 4-hydroxytamoxifen (OHT) (4 nM), and DMSO (0.2%) were used as controls for this assay. […] E2 alone represented 100% transcriptional activation, while the 0.2% DMSO control represented 0% transcriptional activity. OHT was used as a positive control for an active compound.

[2] = system: TamR3 cells; assay: PrestoBlue viability assay, TamR3; format: cell-based; conditions: 1 nM E2, 72 h treatment, ± SD of 3 biological replicates
Procedure: (§1) T47D, MCF7, TamR3, and MDA-MB-231 cells were starved for 72 h and then seeded into black clear-bottom 96-well plates (Corning Life Sciences Cat#3904) at 20,000 cells/well (T47D, MCF7, TamR3) or 5,000 cells/well (MDA-MB-231). […] 20 µl of PrestoBlue Cell Viability Reagent (Thermo Fisher A13262) was added to each well and incubated at 37 °C for 1 h. Fluorescence intensity was measured using the TECAN F500 plate reader with emission and excitation wavelengths of […], respectively.

[3] = system: MCF7 cells; assay: PrestoBlue viability assay, MCF7; format: cell-based; conditions: Homo sapiens, 1 nM E2, 72 h treatment, ± SD of 3 biological replicates
Procedure: as §1

[4] = Precipitation in MST assay buffer; format: physicochemical; conditions: 2% DMSO, 0.03 to 1000 µM
Procedure: MST was used to validate the direct binding and measure the binding affinities between the lead compounds and the recombinant ER-LBD. ER-LBD was labeled with red fluorescent dye using a Protein Labeling Kit RED-NHS 2nd Generation (Nanotemper MO-L011) according to the manufacturer’s protocol. The compounds were serially diluted 1:2 in 100% DMSO from 50 to 0.0015 mM, then added to 10 nM of labeled ER protein in the assay buffer (25 mM Tris, pH 8.4, 150 mM NaCl, 20 µM E2, 0.1 mM PMSF, 0.05% Tween20) at final concentrations of 0.03 to 1000 µM. Recombinant proteins in cell free assays are not affected by DMSO concentrations up to 10%. A final concentration of 2% DMSO was chosen for MST as the compounds required this concentration to be soluble in the assay buffer. […] The corresponding data points were removed from the analysis. […] Each protein/compound mixture was then loaded into Monolith Premium Capillaries (Nanotemper MO-K025). All assays were conducted with medium MST power and 20% excitation power. Data analysis and Kd estimation were performed with the MO Affinity Analysis software from Nanotemper.

[5] = system: T47D cells; assay: PrestoBlue viability assay, T47D; format: cell-based; conditions: 1 nM E2, 72 h treatment, ± SD of 3 biological replicates
Procedure: as §1

[6] = target: ER D538G/F404L mutant (Homo sapiens, UniProt P03372, D538G/F404L); assay: Transcriptional activity of fulvestrant resistant mutant ER; format: cell-based; conditions: compared to DMSO
[7] = parameters: method as in earlier work; conditions: cited from earlier work
[8] = parameters: method as in earlier work; conditions: cited from earlier work; remark: listed apart in the source
[9] = system: MDA-MB-231 cells; assay: PrestoBlue viability assay, MDA-MB-231; format: cell-based; conditions: dose response 50 to 0.01 µM, 1 nM E2
Procedure: as §1

[10] = target: T2, full length ERɑ protein, estrogen binding site (EBS) (Homo sapiens, UniProt P03372); assay: E2-displacement assay (PolarScreen fluorescence polarization); conditions: fluorescence polarization, 1, 10 and 50 µM
T2 construct: full length ERɑ protein was incubated with Fluormone ES2 Green; purchased ThermoFisher A15882
Procedure: The E2 displacement assay was performed using the PolarScreen Estrogen Receptor Alpha Competitor Assay, Green (ThermoFisher A15882) according to the manufacturer’s protocol. In brief, full length ERɑ protein was incubated with Fluormone ES2 Green (Fluormone Tracer) in the ES2 screening buffer in a black bottom 384-well plate (Corning 3573) in the presence of either 1, 10, or 50 µM of test compounds. The final concentrations in the assay were 2% DMSO (consistent with the MST assay), 4.5 nM fluormone, and 40 nM ERɑ protein. 20 µl of the mixture were added to each well, with triplicates performed for each condition. The plate was incubated in the dark at room temperature for 4 h before fluorescence polarization was measured using a Synergy Neo2 plate reader (BioTek).

[11] = target: T3, ER-LBD AF2 site / PGC1a coactivator peptide (Homo sapiens, UniProt P03372); assay: TR-FRET coactivator peptide displacement (LanthaScreen ER alpha Coactivator Assay); format: binding; conditions: 4 nM E2, 4 h
T3 construct: The assay utilizes GST-tagged ER-LBD (final concentration, 7.3 nM); purchased Thermo Fisher A15885
Procedure: We performed a TR-FRET assay to assess whether compounds displace the AF2 peptide from the ER-AF2 pocket using the LanthaScreen TR-FRET ER alpha Coactivator Assay Kit (Thermo Fisher, A15885). The assay utilizes GST-tagged ER-LBD (final concentration, 7.3 nM), terbium-labeled GST-antibody (final concentration, 5 nM), and a fluorescein-coactivator peptide, PGC1a (final concentration, 250 nM) in the presence of 4 nM E2. The GST-antibody, ER protein and fluorescent peptide mixture was incubated with four concentrations of compound (500 µM, 167 µM, 56 µM, 18.5 µM) for 4 h. The sample was excited at 340 nm and read at 520 nm on a Syngergy Neo2 plate reader (BioTek).

[12] = target: T4, recombinant ER-LBD (residues 298–554) (Homo sapiens, UniProt P03372); assay: Microscale thermophoresis (MST) direct binding; conditions: averaged from three independent assays, 20 µM E2 in buffer, read-out: Kd (binding affinity to ER-LBD)
T4 construct: The ER-LBD (residues 298–554) was cloned into pET28a bacterial expression plasmid; His-tag (N); made in house; host or cells: E. coli BL21-DE3 (with pRARE)
Procedure: The ER-LBD (residues 298–554) was cloned into pET28a bacterial expression plasmid with an N-terminal His-tag. pET28a-His-ER and pRARE were transformed into E. coli (BL21-DE3). Bacteria were grown at 37 [drawing 1] C overnight, and then diluted 1:20 the following day in LB media and grown at 37 [drawing 2] C until the OD600 reached 0.5. Protein expression was induced with 1 mM IPTG, and 50 µM E2 was added to the media. Cells were then grown for 5 h at 25 °C. Bacterial pellets were collected by centrifugation at 13,000 rpm for 7 min. Pellets were resuspended in lysis buffer (25 mM Tris, pH 8.4, 150 mM NaCl, 20 µM E2, 1 mM DTT, 0.1 mM PMSF, cOmplete protease inhibitor (Roche)) then sonicated and centrifuged to obtain the soluble extracts. ER-LBD was purified using affinity chromatography with Ni-NTA agarose resin. The presence of the ER-LBD in eluted fractions was confirmed by SDS-PAGE and validated by mass spectrometry. The eluted protein was further purified by size exclusion chromatography (s75), and fractions containing the ER-LBD protein were pooled and concentrated using Amicon Ultra centrifugal filters (3 K MWCO).
MST was used to validate the direct binding and measure the binding affinities between the lead compounds and the recombinant ER-LBD. […]

[13] = system: ER target genes (cyclinD1, CDC2, E2F, PR, pS2) in TamR3 cells; assay: Real-time PCR of ER target genes, TamR3; format: cell-based; conditions: 1 µM Tamoxifen
Procedure: Total RNA was extracted using TRIzol, 72 h post-treatment. cDNA synthesis was conducted using the Maxima First Strand cDNA Synthesis Kit for RT-qPCR (Thermo K1641) according to the manufacturer’s protocol. RT-PCR was conducted on the QuantStudio 7 Pro instrument and expression fold change was calculated using 2−ΔΔCt method normalized to 18s.

[14] = target: T1, ER-LBD (residues 298–554), recombinant, …; assay: MST; 10 nM RED-NHS labelled ER-LBD, ligand titrated; 25 mM Tris pH 8.4, 150 mM NaCl, 20 µM E2, 0.1 mM PMSF, 0.05% Tween20; medium MST power, 20% excitation power; Kd averaged from three independent assays; conditions: both partners purified

T2 sequence (P03372 whole entry): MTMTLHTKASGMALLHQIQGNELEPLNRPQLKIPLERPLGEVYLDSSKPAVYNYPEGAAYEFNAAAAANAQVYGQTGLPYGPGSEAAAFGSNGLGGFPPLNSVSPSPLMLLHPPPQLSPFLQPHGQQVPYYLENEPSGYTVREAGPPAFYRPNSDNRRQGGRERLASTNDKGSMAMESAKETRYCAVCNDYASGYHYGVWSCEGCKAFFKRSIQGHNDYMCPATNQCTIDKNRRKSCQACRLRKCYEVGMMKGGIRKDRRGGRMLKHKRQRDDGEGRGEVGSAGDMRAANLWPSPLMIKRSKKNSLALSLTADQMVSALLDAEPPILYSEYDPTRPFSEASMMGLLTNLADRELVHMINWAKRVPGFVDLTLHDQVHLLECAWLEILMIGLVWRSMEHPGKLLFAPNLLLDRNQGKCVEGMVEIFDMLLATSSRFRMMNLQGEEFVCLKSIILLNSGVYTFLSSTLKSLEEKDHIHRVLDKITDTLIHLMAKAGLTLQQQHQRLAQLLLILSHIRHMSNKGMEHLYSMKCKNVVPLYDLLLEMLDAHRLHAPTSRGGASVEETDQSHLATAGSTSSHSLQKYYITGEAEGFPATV
ER D538G/F404L mutant, sequence (P03372 whole entry F404L/D538G): as the sequence (P03372 whole entry) above, with F404L, D538G counted along it

Molecule | IC50 ([1]; 24 h) [µM] | IC50 [2] [µM] | IC50 [3] [µM] | Precipitation after addition of ER protein [4] | IC50 ([5]; Homo sapiens, T47D, 72 h) [µM] | also measured
O=C(Nc1cccc(CNCc2cnc3ccccn23)c1)C1CCCO1 (stereo not drawn) [VPC-260961] | 7.26 ± 0.73 | 18.7 ± 1.15 | 18.7 ± 1.18 | – | – | –
O=C(NCc1ccc2occc2c1)Nc1ccc(OCC2CCCO2)cc1 (stereo not drawn) [VPC-260936] | 27.2 ± 6.44 | 21.8 ± 6.51 | – | exhibited precipitation at 1000 and 500 µM | 10.6 ± 4.27 | –
C[C@]12CC[C@@H]3c4ccc(O)cc4C[C@@H](CCCCCCCCC[S+]([O-])CCCC(F)(F)C(F)(F)F)[C@H]3[C@@H]1CC[C@@H]2O (stereo partly drawn) [fulvestrant] | – | – | – | – | – | Transcriptional activity of mutant ER D538G/F404L [6]: increased the transcriptional activity; Solubility [7]: poor solubility; Oral bioavailability [8]: not orally bioavailable
CC1CC(NC(=O)Nc2ccc(Oc3cccc(F)c3F)nc2)C(=O)N1c1cnn(C)c1 (stereo not drawn) [VPC-260950] | 12.4 ± 4.57 | 21.4 ± 3.66 | – | – | 16 ± 6.53 | –
CCNC(=O)c1cccc(CNCc2cnc3c(C)cccn23)c1 [VPC-260709] | 13.8 ± 2.92 | – | – | exhibited precipitation at 1000 and 500 µM | 6.37 ± 3.3 | –
Cc1cccn2c(CNCc3cccc(Br)c3)cnc12 [VPC-260726] | 17.9 ± 3.51 | 13.9 ± 1.84 | 16.6 ± 1.47 | – | 11.2 ± 5.67 | –
Cc1cccn2c(CNCc3cccc(NC(=O)[C@@H]4CCCO4)c3)cnc12 [VPC-260962] | 10.8 | 27.8 ± 7.99 | 16.4 ± 3.59 | – | 8.9 | IC50 [1]: 10.8 ± 2.92 µM; IC50 [5]: 8.92 ± 2.81 µM; Effect on viability of ER-negative MDA-MB-231 cells [9]: minimal impact
Cc1cccn2c(CNCc3cccc(NC(=O)[C@H]4CCCO4)c3)cnc12 [VPC-260963] | 11.9 ± 3.62 | 16.2 ± 3.38 | 21.1 ± 4.67 | – | 19 ± 5.66 | –
Cc1cccc(Oc2ccc(NC(=O)N[C@H]3C[C@H](CO)C3)cn2)c1C [VPC-260927] | 10.8 ± 3.85 | 24.4 ± 2.48 | 19.5 ± 2.16 | – | 13.8 ± 4.23 | Displacement of fluormone (fluorescent E2) from EBS [10]: displaces the fluormone at 1, 10 and 50 µM; Concentration at which a reduction of the FRET signal (PGC1⍺ peptide displacement) was observed [11]: 500 µM; Kd [12]: 13.2 ± 10.5 µM
CC/C(=C(\c1ccccc1)c1ccc(OCCN(C)C)cc1)c1ccccc1 [Tamoxifen, tamoxifen, reference compound] | – | – | – | – | – | ER target gene expression in TamR3, tamoxifen alone [13]: increased target gene expression
Cc1cccc(Oc2ccc(NC(=O)N3CCC(c4nnc[nH]4)C3)cn2)c1C (stereo not drawn) [VPC-260955] | 17.4 ± 1.12 | 28.7 ± 1.3 | – | exhibited precipitation at 1000 and 500 µM | 18.6 ± 1.13 | –
Cc1cccn2c(CNCc3ccc(F)cc3F)cnc12 [VPC-260711] | 6.4 | 16.8 ± 2.07 | 18 ± 1.3 | exhibited precipitation at 1000 and 500 µM | 5.4 ± 1.23 | IC50 [1]: 6.36 ± 0.59 µM; Effect on viability of ER-negative MDA-MB-231 cells [9]: minimal impact
B1 | – | – | – | – | – | Kd [14]: 16.6 ± 2.4 µM
